# Laboratory results: US20190269705A1, “METHODS AND MATERIALS FOR TREATING GRAFT VERSUS HOST DISEASE” (Regents of the University of Minnesota, priority 2017, published 2019)
# “Also recorded” adds a separate entry of the source.
# Tests used:
# CD8 T cells = CD8 T cells activated on αCD3/CD28 + IL2, flow cytometry
# Treg cells = test: CD4 T cells in Treg skewing conditions, flow cytometry; conditions: 5 days, CB839 vs vehicle
# [1] = test system: hgp100-expressing vaccinia virus; conditions: mouse, in vivo
# [2] = mouse, in vivo
# stimulated T cells = test: Oxygen Consumption Rate (Seahorse) of stimulated CD4 T cells; type: cell-based, mouse; conditions: CD4 cells stimulated on CD3/CD28; 1 μM CB839, 5 μM UK5099 injected separately or in combination
# Method: Experiments were carried out on Agilent Seahorse XF96 bioanalyzer (Agilent). Briefly, wild type CD4+ cells were isolated as previous and activated for 3 days on CD3/CD28 as previously described, or skewed to Th1 and Th17 subsets as described above. T cells were spun onto XF96 Cell-Tak (BD Bioscience, Cat #: 354240) coated plates and rested in Seahorse XF RPMI 1640 media supplemented with glutamine, sodium pyruvate, and glucose. For immediate metabolic response, CB839 and UK5099 were injected separately or in combination, and OCR and ECAR measured.
# Experiments were carried out on Agilent Seahorse XF96 bioanalyzer (Agilent). Briefly, wild type CD4+ cells were isolated as previous and activated for 3 days on αCD3/CD28 coated plates as previously described, or skewed to Th1 and Th17 subsets as described above. T cells were isolated and spun onto XF96 Cell-Tak (BD Bioscience, Cat #: 354240) coated plates and rested in Seahorse XF RPMI 1640 media supplemented with glutamine, sodium pyruvate, and glucose. For immediate metabolic response, 1 μM CB839 and 5 μM UK5099 (Cat #: PZ0160-5MG) were injected separately or in combination, and OCR and ECAR measured. For activation response, 1 uM CB839 was injected into IL-7 maintained naïve CD4+ T cells in seahorse medium and allowed to incubate for 20 minutes, followed by soluble αCD3/CD28 injection.
# Th1 cells = test: RNA-Seq and gene set enrichment analysis, Th1; type: cell-based, mouse
# Method: ATAC-Seq: Crude nuclei pellets were isolated as described elsewhere (see, e.g., Buenrostro et al., 2013 Nat Meth. 10(12):1213-1218) with modifications. Briefly, naïve CD4 T cells were skewed to Th1 and Th17 subsets in vitro with vehicle or in the presence of 500 nM CB839. At Day 5, T cells were re-isolated for CD4+ cells using Miltenyi CD4+ negative selection kit (Cat #: 130-104-454). 1×10^5 cells were removed for nuclei extraction in ATAC-Seq lysing buffer. Cells were exposed to Tn5+ adaptor proteins from Nextera DNA for 30 min at 37° C. and immediately placed on ice. Transposed eluate was amplified via PCR using Nextera DNA preparation kit (Illumina, Cat #: FC-121-1030), NEBNext High-fidelity 2× PCR mix (New England Labs, Cat #: M0541), and multiplexed (Illumina, Cat #: FC-121-1011). Samples were purified using Zymo DNA cleanup kit (Cat #: D4011). QC of samples was run on bioanalyzer before being sent for sequencing. RNA-Seq: Th1 and Th17 cells skewed with or without CB839 were isolated as previously described and total RNA extracted (Qiagen RNEasy Mini kit, Cat #: 74104). RNA was sent to VANTAGE core at Vanderbilt University and sequenced on HiSeq 2500. n=3 for each sample was analyzed. Samples were analyzed using the R program DESeq2. GSEA was performed using MSigDB.
# Th1 and Th17 cells were skewed with or without CB839 over 5 days and total RNA extracted for RNAseq (Cat #: 74104). RNA was sent to VANderbilt Technologies for Advanced GEnomics (VANTAGE) core at Vanderbilt University. Libraries were prepared using 50 ng of total RNA using the NEBNext Ultra RNA Library Kit for Illumina (Cat #E7530) and sequenced on HiSeq3000 at 75 bp paired-end. Each sample was analyzed in triplicate. Sequencing reads were aligned against the Mouse GENCODE genome, Version M14 (Jan. 2017 freeze, GRCm38, Ensembl 89) using the Spliced Transcripts Alignment to a Reference (STAR) software (ref: 26187010 and 23104886). Reads were preprocessed and index using SAMtools (ref: 19505943). Mapped reads were assigned to gene features and quantified using featureCounts (ref: 24227677). Normalization and differential expression was performed using DESeq2 (Love et al., 2014). Skewed lymphocytes with and without CB839 were compared in both Th1 and Th17 groups. […] The top 200 most differentially expressed genes were used for unsupervised hierarchical cluster analysis and visualized using heatmap representations.
# [3] = CD8 T cells, five days stimulation
# [4] = Th1 Cells: Decreased Pathways, HALLMARK_ALLOGRAFT_REJECTION
# [5] = Th1 Cells: Decreased Pathways, HALLMARK_ANGIOGENESIS
# [6] = Th1 Cells: Decreased Pathways, HALLMARK_APICAL_JUNCTION
# [7] = Th1 Cells: Decreased Pathways, HALLMARK_APOPTOSIS
# [8] = Th1 Cells: Decreased Pathways, HALLMARK_COMPLEMENT
# [9] = Th1 Cells: Decreased Pathways, HALLMARK_EPITHELIAL_MESENCHYMAL_TRANSITION
# [10] = Th1 Cells: Decreased Pathways, HALLMARK_ESTROGEN_RESPONSE_EARLY
# [11] = Th1 Cells: Decreased Pathways, HALLMARK_INFLAMMATORY_RESPONSE
# [12] = Th1 Cells: Decreased Pathways, HALLMARK_INTERFERON_GAMMA_RESPONSE
# [13] = Th1 Cells: Decreased Pathways, HALLMARK_KRAS_SIGNALING_UP
# [14] = Th1 Cells: Decreased Pathways, HALLMARK_UV_RESPONSE_DN
# [15] = Th1 Cells: Increased Pathways, HALLMARK_DNA_REPAIR
# [16] = Th1 Cells: Increased Pathways, HALLMARK_E2F_TARGETS
# [17] = Th1 Cells: Increased Pathways, HALLMARK_ESTROGEN_RESPONSE_LATE
# [18] = Th1 Cells: Increased Pathways, HALLMARK_G2M_CHECKPOINT
# [19] = Th1 Cells: Increased Pathways, HALLMARK_GLYCOLYSIS
# [20] = Th1 Cells: Increased Pathways, HALLMARK_IL2_STAT5_SIGNALING
# [21] = Th1 Cells: Increased Pathways, HALLMARK_MITOTIC_SPINDLE
# [22] = Th1 Cells: Increased Pathways, HALLMARK_MTORC1_SIGNALING
# [23] = Th1 Cells: Increased Pathways, HALLMARK_MYC_TARGETS_V1
# [24] = Th1 Cells: Increased Pathways, HALLMARK_P53_PATHWAY
structure (smiles),measurement,setting,value
O=C(Cc1cccc(OC(F)(F)F)c1)Nc1ccc(CCCCc2nnc(NC(=O)Cc3ccccn3)s2)nn1 [CB839],Granzyme B,"CD8 T cells; CD8 T cells, 4-5 days stimulation",increased levels of Granzyme B
same,Eomes,CD8 T cells; [3],increased levels
same,Perforin,CD8 T cells; [3],increased
same,Tbet,CD8 T cells; [3],increased levels
same,markers of proliferation,CD8 T cells; [3],increased levels
same,portion of CD8 T cells expressing inhibitory receptors Lag3 and PD-1,CD8 T cells; [3],increased
same,phospho-S6,CD8 T cells; CTL in the presence of IL2,enhanced phospho-S6
same,Treg differentiation,Treg cells,unchanged
same,time increased cell numbers persisted,[1],greater than 5 weeks
same,accumulation / persistence of transferred CD8 T cells,[2],accumulated to greater numbers in vivo by day 7; also recorded: enhances T cell persistence
same,oxygen consumption (T cell respiration),stimulated T cells,neither UK5099 nor CB839 were sufficient on their own to reduce T cell respiration; also recorded: neither UK5099 nor CB839 were sufficient to reduce T cell respiration alone
same,Pik3ip1 expression by RNA-Seq,Th1 cells; Th1,most strongly downregulated
same,compensation by GLS2 at the RNA level,"Th1 cells; Th1, CB839-treated",No compensation by GLS2 at the RNA level
same,direction of the 200 genes with the most altered expression,"Th1 cells; Th1, CB839 vs vehicle",the majority showed increased expression
same,"gene set enrichment: cell cycle, mTORC1, Myc, IL2 signaling pathways","Th1 cells; Th1, CB839 vs vehicle","upregulation of cell cycle, mTORC1, Myc, IL2 signaling, and glycolysis pathways; also recorded: upregulation of specific pathways including those related to cell cycle, mTORC1, Myc, and IL2 signaling"
same,# Genes in Overlap (k),Th1 cells; [4],17
same,k/K,Th1 cells; [4],0.085
same,# Genes in Overlap (k),Th1 cells; [5],6
same,k/K,Th1 cells; [5],0.1667
same,# Genes in Overlap (k),Th1 cells; [6],16
same,k/K,Th1 cells; [6],0.08
same,# Genes in Overlap (k),Th1 cells; [7],13
same,k/K,Th1 cells; [7],0.0807
same,# Genes in Overlap (k),Th1 cells; [8],18
same,k/K,Th1 cells; [8],0.09
same,# Genes in Overlap (k),Th1 cells; [9],13
same,k/K,Th1 cells; [9],0.065
same,# Genes in Overlap (k),Th1 cells; [10],13
same,k/K,Th1 cells; [10],0.065
same,# Genes in Overlap (k),Th1 cells; [11],18
same,k/K,Th1 cells; [11],0.09
same,# Genes in Overlap (k),Th1 cells; [12],14
same,k/K,Th1 cells; [12],0.07
same,# Genes in Overlap (k),Th1 cells; [13],20
same,k/K,Th1 cells; [13],0.1
same,# Genes in Overlap (k),Th1 cells; [14],11
same,k/K,Th1 cells; [14],0.0764
same,# Genes in Overlap (k),Th1 cells; [15],28
same,k/K,Th1 cells; [15],0.1867
same,# Genes in Overlap (k),Th1 cells; [16],135
same,k/K,Th1 cells; [16],0.675
same,# Genes in Overlap (k),Th1 cells; [17],30
same,k/K,Th1 cells; [17],0.15
same,# Genes in Overlap (k),Th1 cells; [18],101
same,k/K,Th1 cells; [18],0.505
same,# Genes in Overlap (k),Th1 cells; [19],34
same,k/K,Th1 cells; [19],0.17
same,# Genes in Overlap (k),Th1 cells; [20],37
same,k/K,Th1 cells; [20],0.185
same,# Genes in Overlap (k),Th1 cells; [21],56
same,k/K,Th1 cells; [21],0.28
same,# Genes in Overlap (k),Th1 cells; [22],47
same,k/K,Th1 cells; [22],0.235
same,# Genes in Overlap (k),Th1 cells; [23],43
same,k/K,Th1 cells; [23],0.215
same,# Genes in Overlap (k),Th1 cells; [24],30
same,k/K,Th1 cells; [24],0.15
